One assay deals with HSA (Homo sapiens, UniProt P02768). The assay can be described thus: Spin-probing EPR: displacement of 16-DS from preformed HSA/16-DS. It counts as binding. Conditions: for Unbound Component Contribution (XUB, %): 50 µM HSA, 250 µM 16-DS, 200 µM complex ([HSA]:[Ru-complex] 1:4), 1.2% v/v DMSO, phosphate buffer pH 7.4, EPR spectral simulation. The protocol:
In order to investigate the nature of the interaction between the two Ru-complexes and human serum albumin (HSA), spin-probing/electron paramagnetic resonance methodology was used additionally. Namely, as HSA can bind up to seven molecules of long-chain fatty acids, and their doxyl derivatives, which are EPR-active compounds, HSA was first incubated with the fivefold concentration of 16-doxyl-stearic acid (16-DS, Sigma-Aldrich), and subsequently the aliquots of the Ru-complexes solutions were added to the HSA/16-DS mixture. For this experiment, HSA was dissolved in the 100 mM phosphate buffer, pH 7.4, and its concentration was 0.2 mM. The ethanol solution of 16-DS was transferred to the bottom of the test tube, and ethanol was dried in the Eppendorf Concentrator plus vacuum centrifuge. After the ethanol completely evaporated, an appropriate amount of HSA solution was added to the tube containing 16-DS. The concentration of the 16-DS in HSA/16-DS solution was 1 mM, i.e., [HSA]:[16-DS] molar ratio was 1:5. This stock solution was incubated until the full binding of 16-DS to HSA was achieved. The incubation involved occasional gentle vortexing and thermostating at 37 °C in a water bath.
In the next step, Ru(II) complexes were dissolved in DMSO and diluted using 100 mM phosphate buffer, pH 7.4. The concentrations of both Ru(II) complexes stock solutions were 266.67 µM. Small volumes of these solutions were added to HSA/16-DS preparation and diluted with the phosphate buffer. Afterward, the samples were incubated for 30 min before the EPR measurement. […]
The samples prepared as previously described were aspirated into the capillary gas-permeable Teflon tubes (Zeus Industries, Inc., Orangeburg, SC, USA) and placed into the resonator cavity of the X-band EPR spectrometer Bruker Elexsys II E500. […] The acquired EPR spectra were analyzed using the Bruker Xepr software and simulated by SimLabel, a graphical user interface software that is an extension of EasySpin [64], the EPR simulation package (the version of EasySpin used was 6.0.6). […]

The test system of another assay is MMP2. As to the kind of experiment: Gelatin gel electrophoresis of supernatants, MMP2 activity, MIA PaCa-2. Type of assay: cell-based, human. Conditions: MIA PaCa-2, 100 µM complex 1 or 50 µM complex 2, 24 and 48 h treatments. As to the method: (§1) MDA-MB-231 and MIA PaCa-2 cells were treated with 50 µM of complex 2 or 75 µM and 100 µM of complex 1, respectively. The treatments lasted 24 and 48 h. Untreated cells were used as control. The supernatants were collected for further analysis. Electrophoresis in a polyacrylamide gel with an add-on of 0.1% SDS and 0.2% gelatin was used to measure metalloproteinase 2 and 9 activity (MMP2 and MMP9).
(§2) The gels were imaged with a ChemiDoc Imaging System (Bio-Rad Laboratories, Hercules, CA, USA) and estimated by densitometric scanning using the Image Lab (Bio-Rad Laboratories, Inc. Version 6.0.0.25) software tool.

In a further assay the test system is MMP9. The assay can be described thus: Gelatin gel electrophoresis of supernatants, MMP9 activity, MDA-MB-231. It counts as cell-based, human. The protocol:
as §1, §2

HSA, sequence (P02768 25-609): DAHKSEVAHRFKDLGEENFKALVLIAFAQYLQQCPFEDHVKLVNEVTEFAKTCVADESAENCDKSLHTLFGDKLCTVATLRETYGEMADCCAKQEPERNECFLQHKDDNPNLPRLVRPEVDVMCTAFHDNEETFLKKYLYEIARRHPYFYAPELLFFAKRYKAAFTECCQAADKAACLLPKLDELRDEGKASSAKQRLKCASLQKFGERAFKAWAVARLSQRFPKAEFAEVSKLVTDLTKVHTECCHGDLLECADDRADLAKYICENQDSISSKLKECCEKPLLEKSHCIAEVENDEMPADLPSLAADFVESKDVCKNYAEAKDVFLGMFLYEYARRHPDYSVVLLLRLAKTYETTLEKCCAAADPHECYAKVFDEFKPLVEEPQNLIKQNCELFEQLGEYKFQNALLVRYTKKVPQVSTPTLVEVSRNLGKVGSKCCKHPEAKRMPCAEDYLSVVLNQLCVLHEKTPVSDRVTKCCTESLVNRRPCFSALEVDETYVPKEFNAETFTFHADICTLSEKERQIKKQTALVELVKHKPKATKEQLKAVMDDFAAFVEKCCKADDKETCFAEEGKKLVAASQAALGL

As for `Cc1ccc(C(C)C)cc1.Cc1ccc(C(C)C)cc1.Cc1ccc(NN)cc1C.[Cl-].[Cl][Ru].[Cl][Ru][Cl]` [complex 2, Chlorido(μ-chlorido)(η^6-p-cymene)(μ-3,4-dimethylphenylhydrazine-κ^2N,N′)ruthenium(II)-dimer chloride], the “Unbound Component Contribution (XUB, %)” value at HSA is 0.71 ± 0.02%. Further, the MMP2 activity entry in the assay on MMP2 is recorded as “No changes”. In the assay on MMP9 (MDA-MB-231, 50 µM complex 2, 24 and 48 h treatments), the MMP9 activity entry was “did not affect”.

For “Dichlorido(η^6-p-cymene)(3,4-dimethylphenylhydrazine-κN)ruthenium(II) [complex 1]”, the “Unbound Component Contribution (XUB, %)” value on HSA is 0.73 ± 0.02%. Further, on HSA ([HSA]:[Ru-complex] 1:0.5 to 1:4, qualitative), the “Ihf/Ilf parameter (amplitude ratio of high-field and low-field peaks)” value is listed as “more pronounced increase”. Further, the MMP2 activity entry with MMP2 is given as “No changes”. In addition, in the assay with MMP9 (MDA-MB-231, 75 µM complex 1, after 48 h, compared to control and 24 h treatment (p < 0.01)), the MMP9 activity entry is listed as “significantly lower”.

The record behind these values is article PMC11940238, “Ru(II) Complexes with 3,4-Dimethylphenylhydrazine: Exploring In Vitro Anticancer Activity and Protein Affinities” (Biomolecules, 2025).
